Results: doi:10.1101/2023.02.25.529946, “Development of Cell Permeable NanoBRET Probes for the Measurement of PLK1 Target Engagement in Live Cells” (bioRxiv, 2023)

Target: T1, PLK1 (Homo sapiens, UniProt P53350)
T1 construct: full-length PLK1, N-terminal NLuc fusion (NLuc-PLK1)
Test: live-cell NanoBRET probe titration with and without excess compound […]
Format: cell-based

T1 sequence (P53350 whole entry, the tested form may be a part): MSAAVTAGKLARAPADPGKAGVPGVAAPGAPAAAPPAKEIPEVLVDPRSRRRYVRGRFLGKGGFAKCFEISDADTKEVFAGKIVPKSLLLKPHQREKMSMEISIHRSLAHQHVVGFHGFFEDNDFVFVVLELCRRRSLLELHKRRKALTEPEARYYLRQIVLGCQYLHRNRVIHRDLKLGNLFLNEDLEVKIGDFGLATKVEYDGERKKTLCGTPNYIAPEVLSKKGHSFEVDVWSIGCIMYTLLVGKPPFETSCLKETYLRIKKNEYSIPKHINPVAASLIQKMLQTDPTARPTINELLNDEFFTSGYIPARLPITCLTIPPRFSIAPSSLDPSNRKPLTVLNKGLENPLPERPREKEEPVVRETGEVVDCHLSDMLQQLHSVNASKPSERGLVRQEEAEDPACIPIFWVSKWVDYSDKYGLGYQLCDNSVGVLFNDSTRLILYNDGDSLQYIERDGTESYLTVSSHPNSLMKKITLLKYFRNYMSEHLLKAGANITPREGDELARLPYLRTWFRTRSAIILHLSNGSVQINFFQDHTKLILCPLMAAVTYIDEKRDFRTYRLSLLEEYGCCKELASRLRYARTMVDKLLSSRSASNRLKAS

- EC50: 300 nM
SMILES: CC[C@@H]1C(=O)N(C)c2cnc(Nc3ccc(C(=O)NC4CCN(C(=O)CCOCCOCCOCCOCCNC(=O)CCc5ccc6n5[B-](F)(F)[N+]5=C(c7ccc[nH]7)C=CC5=C6)CC4)cc3OC)nc2N1C(C)C [compound 11, (R)-N-(1-(1-(5,5-difluoro-7-(1H-pyrrol-2-yl)-5H-5^λ,6^λ-dipyrrolo[1,2-c:2',1'-f][1,3,2]diazaborinin-3-yl)-3-oxo-7,10,13,16-tetraoxa-4-azanonadecan-19-oyl)piperidin-4-yl)-4-((7-ethyl-8-isopropyl-5-methyl-6-oxo-5,6,7,8-tetrahydropteridin-2-yl)amino)-3-methoxybenzamide]
